Assay results published in US11773066B2, “Indazolylcyanoethylamino compound, compositions of same, method of making, and methods of using thereof” (BOEHRINGER INGELHEIM ANIMAL HEALTH USA INC., priority 2018, dated 2023).
In brackets after ≈: the same amount, converted by molar mass.

Columns and labels:
[1] = system: Haemonchus contortus larvae; assay: In vitro Haemonchus contortus larval motility (L1 to L3 development) assay, MIC90; format: cell-based; details: 96 h, L1 larvae in nutrient medium, 27° C., 97% relative humidity, 4 days, motility of L3 vs DMSO control, read-out: MIC90 (minimum concentration inhibiting motility of the larvae by 90%)
Protocol: The following procedure was used for the study: Twenty L1 Haemonchus contortus larvae were added to wells of a microtitre plate containing a nutrient medium and the test compound in DMSO. The microtitre plate was held at 27° C. and 97% Relative humidity for a 4 day period. Under these conditions the added larvae develop to the L3 stage. The efficacy of a compound is determined based on the motility of the resulting L3 larvae and compared to the motility of control wells treated with DMSO only.

Cooperia oncophora = assay: In vivo efficacy in experimentally infected calves, worm count reduction; details: oral; for efficacy against C. oncophora males in words: Compound I compared with eprinomectin (Group 3) or ivermectin (Group 4); for % Reduction in Worm Counts, C. oncophora Males: single treatment Day 0, necropsy Day 16, vs untreated control, Compound I 2 mg/kg, eprinomectin 0.075 mg/kg, ivermectin 0.150 mg/kg
From the text: (§1) The efficacy of Compound I against parasitic gastrointestinal nematodes in cattle when administered orally as an oral solution was studied. Thirty male castrate dairy calves of approximately 8 to 12 weeks of age were experimentally infected with parasitic nematodes. The calves were inoculated with Haemonchus […] Ostertagia ostertagi on Day -33 and with Cooperia punctata and Cooperia oncophora on Day -21. Calves were allocated to one of the six treatment groups. Calves in Treatment Group 1 were not treated. Calves in Treatment Groups 2-6 were treated on Day 0 as outlined in the Table 2 below with a formulation containing 5% (w/v) of Compound I in a carrier comprising 50% (v/v) PEG 400 with the remainder (QS to 130 mL0 PEG 300. [table] All calves were euthanized on Day 16 and the abomasum and small intestine were recovered from each calf and processed for parasite recovery. All five calves in the untreated control group harbored adequate infections of […]. ostertagi, C. punctate and C. oncophora. The efficacy of each treatment group relative to the control group is shown in Table 3 below: […]

Cooperia punctata = assay: as above; details: oral, single treatment Day 0, necropsy Day 16, vs untreated control, Compound I 2 mg/kg, eprinomectin 0.075 mg/kg, ivermectin 0.150 mg/kg
From the text: as §1

Cooperia spp. = assay: as above; details: oral; for % Reduction in Worm Counts, Cooperia spp. Females: single treatment Day 0, necropsy Day 16, vs untreated control, Compound I 2 mg/kg, eprinomectin 0.075 mg/kg, ivermectin 0.150 mg/kg
From the text: as §1

Haemonchus placei = assay: as above; details: oral, single treatment Day 0, necropsy Day 16, vs untreated control, Compound I 2 mg/kg, eprinomectin 0.075 mg/kg, ivermectin 0.150 mg/kg
From the text: as §1

Ostertagia ostertagi = assay: as above; details: oral, single treatment Day 0, necropsy Day 16, vs untreated control, Compound I 2 mg/kg, eprinomectin 0.075 mg/kg, ivermectin 0.150 mg/kg
From the text: as §1

## CC(C#N)(Cn1cc2c(C(F)(F)F)cc(Cl)c(Cl)c2n1)NC(=O)c1ccc(SC(F)(F)F)cc1 (centres unmarked) [Compound II]
[1]
  MIC90: 1.2 ng/mL (≈ 2.22 nM)

## CC(C#N)(Cn1cc2c(C(F)F)cc(Cl)c(Cl)c2n1)NC(=O)c1ccc(SC(F)(F)F)cc1 (centres unmarked) [Compound I]
[1]
  MIC90: 0.3 ng/mL (≈ 0.573 nM)
Cooperia oncophora
  efficacy against C. oncophora males in words: significantly more effective
  % Reduction in Worm Counts, C. oncophora Males: 83.0%
Cooperia punctata
  % Reduction in Worm Counts, C. punctata Males: 100.0%
Cooperia spp.; Compound I compared with eprinomectin (Group 3) or ivermectin (Group 4)
  efficacy against Cooperia spp. female worms in words: significantly more effective
Cooperia spp.
  % Reduction in Worm Counts, Cooperia spp. Females: 90.9%
Haemonchus placei
  % Reduction in Worm Counts, H. placei Adults: 100.0%
Ostertagia ostertagi
  % Reduction in Worm Counts, O. ostertagi Females: 96.4%
  % Reduction in Worm Counts, O. ostertagi Males: 96.3%

## CC(C#N)(Cn1cc2ccc(Cl)cc2n1)NC(=O)c1ccc(SC(F)(F)F)cc1 (centres unmarked) [‘999 App, 2.038]
[1]
  MIC90: 2.4 ng/mL (≈ 5.47 nM)

## CC(C#N)(Cn1cc2c(Cl)cc(Cl)cc2n1)NC(=O)c1ccc(SC(F)(F)F)cc1 (centres unmarked) [‘999 App, 2.041]
[1]
  MIC90: 2.4 ng/mL (≈ 5.07 nM)

## CC(C#N)(Cn1cc2c(Cl)cc(Cl)c(Cl)c2n1)NC(=O)c1ccc(SC(F)(F)F)cc1 (centres unmarked) [‘999 App, 2.049]
[1]
  MIC90: 1.2 ng/mL (≈ 2.36 nM)

## eprinomectin
Cooperia oncophora
  % Reduction in Worm Counts, C. oncophora Males: 0%
Cooperia punctata
  % Reduction in Worm Counts, C. punctata Males: 94.7%
Cooperia spp.
  % Reduction in Worm Counts, Cooperia spp. Females: 55.8%
Haemonchus placei
  % Reduction in Worm Counts, H. placei Adults: 98.9%
Ostertagia ostertagi
  % Reduction in Worm Counts, O. ostertagi Females: 99.4%
  % Reduction in Worm Counts, O. ostertagi Males: 95.7%

## ivermectin
Cooperia oncophora
  efficacy against C. oncophora males in words: not effective
  % Reduction in Worm Counts, C. oncophora Males: 0%
Cooperia punctata
  % Reduction in Worm Counts, C. punctata Males: 91%
Cooperia spp.
  % Reduction in Worm Counts, Cooperia spp. Females: 46%
Haemonchus placei
  % Reduction in Worm Counts, H. placei Adults: 82%
Ostertagia ostertagi
  % Reduction in Worm Counts, O. ostertagi Females: 81%
  % Reduction in Worm Counts, O. ostertagi Males: 75%
